Data reported in patent publication US6420313B1, “Thienylalkylamino-1,3,5-triazines and the use thereof as herbicides” (Bayer Aktiengesellschaft, priority 1998, dated 2002).

Legend:
Assay type in all cases: in vivo
Viola [1] = test: Pre-emergence test/greenhouse, Viola; details: 500 g of ai./ha, after three weeks
Experimental: (§1) Solvent: 5 parts by weight of acetone
(§2) Emulsifier: 1 part by weight of alkylaryl polyglycol ether
(§3) To produce a suitable preparation of active compound, 1 part by weight of active compound is mixed with the stated amount of solvent, the stated amount of emulsifier is added and the concentrate is diluted with water to the desired concentration.
(§4) Seeds of the test plants are sown in normal soil. After about 24 hours, the soil is sprayed with the preparation of active compound such that the particular amount of active compound desired is applied per unit area. The concentration of the spray liquor is chosen so that the particular amount of active compound desired is applied in 1000 liters of water per hectare.
(§5) After three weeks, the degree of damage to the plants is rated in % damage in comparison to the development of the untreated control.
(§6) 0%=no effect (like untreated control)

Chenopodium = test: Pre-emergence test/greenhouse, Chenopodium; details: 500 g of ai./ha, after three weeks
Experimental: as §1, §2, §3, §4, §5, §6

Solanum [2] = test: Pre-emergence test/greenhouse, Solanum; details: 500 g of ai./ha, after three weeks
Experimental: as §1, §2, §3, §4, §5, §6

Digitaria [3] = test: Pre-emergence test/greenhouse, Digitaria; details: 500 g of ai./ha, after three weeks
Experimental: as §1, §2, §3, §4, §5, §6

Veronica = test: Pre-emergence test/greenhouse, Veronica; details: 504 h, 500 g of ai./ha, after three weeks, read-out: degree of damage, Veronica
Experimental: as §1, §2, §3, §4, §5, §6

Cyperus = test: Pre-emergence test/greenhouse, Cyperus; details: 500 g of ai./ha, after three weeks
Experimental: as §1, §2, §3, §4, §5, §6

Matricaria = test: Pre-emergence test/greenhouse, Matricaria; details: 500 g of ai./ha, after three weeks
Experimental: as §1, §2, §3, §4, §5, §6

Amaranthus = test: Pre-emergence test/greenhouse, Amaranthus; details: 500 g of ai./ha, after three weeks
Experimental: as §1, §2, §3, §4, §5, §6

Alopecurus = test: Pre-emergence test/greenhouse, Alopecurus; details: 500 g of ai./ha, after three weeks
Experimental: as §1, §2, §3, §4, §5, §6

wheat [4] = test: Pre-emergence test/greenhouse, wheat; details: 500 g of ai./ha, after three weeks
Experimental: as §1, §2, §3, §4, §5, §6

cotton = test: Pre-emergence test/greenhouse, cotton; details: 500 g of ai./ha, after three weeks
Experimental: as §1, §2, §3, §4, §5, §6

maize = test: Pre-emergence test/greenhouse, maize; details: 500 g of ai./ha, after three weeks
Experimental: as §1, §2, §3, §4, §5, §6

Solanum [5] = test: Post-emergence test/greenhouse, Solanum; details: after three weeks
Experimental: as §1, §2, §3
(§7) Test plants of a height of 5-15 cm are sprayed with the preparation of active compound such that the particular amounts of active compound desired are applied per unit area. The concentration of the spray liquor is chosen so that the particular amounts of active compound desired are applied in 1000 l of water/ha.
as §5, §6

wheat [6] = test: Post-emergence test/greenhouse, wheat; details: after three weeks
Experimental: as §1, §2, §3, §7, §5, §6

Datura [7] = test: Post-emergence test/greenhouse, Datura; details: after three weeks
Experimental: as §1, §2, §3, §7, §5, §6

barley = test: Post-emergence test/greenhouse, barley; details: after three weeks
Experimental: as §1, §2, §3, §7, §5, §6

[8] = tested on: crop plants, such as, for example, maize, barley and wheat; test: Post-emergence test, tolerance by crop plants; details: result in words
Experimental: as §1, §2, §3, §7, §5, §6

Viola [9] = test: Post-emergence test/greenhouse, Viola; details: after three weeks
Experimental: as §1, §2, §3, §7, §5, §6

weeds [10] = test: Post-emergence test, activity against weeds; details: result in words
Experimental: as §1, §2, §3, §7, §5, §6

Ipomoea = test: Post-emergence test/greenhouse, Ipomoea; details: after three weeks
Experimental: as §1, §2, §3, §7, §5, §6

Lolium = test: Pre-emergence test/greenhouse, Lolium; details: 500 g of ai./ha, after three weeks
Experimental: as §1, §2, §3, §4, §5, §6

Setaria = test: Post-emergence test/greenhouse, Setaria; details: 500 g of ai./ha, after three weeks
Experimental: as §1, §2, §3, §7, §5, §6

[11] = tested on: crop plants, such as, for example, cotton, maize, wheat and barley; test: Pre-emergence test, tolerance by crop plants; details: result in words
Experimental: as §1, §2, §3, §4, §5, §6

weeds [12] = test: Pre-emergence test, activity against weeds; details: result in words
Experimental: as §1, §2, §3, §4, §5, §6

Digitaria [13] = test: Post-emergence test/greenhouse, digitaria; details: 500 g of ai./ha, after three weeks
Experimental: as §1, §2, §3, §7, §5, §6

Datura [14] = test: Pre-emergence test/greenhouse, Datura; details: 500 g of ai./ha, after three weeks
Experimental: as §1, §2, §3, §4, §5, §6

CCC(CCc1ccc(Br)s1)Nc1nc(N)nc(C(C)(C)F)n1 (stereo not shown) [drawing 247]
degree of damage, Viola (Viola [1]): 100%

CCC(CCc1ccc(Br)s1)Nc1nc(N)nc(C(C)F)n1 (stereo not shown) [drawing 236]
degree of damage, Chenopodium (Chenopodium): 100%
degree of damage, Solanum (Solanum [2]): 100%
degree of damage, Digitaria (Digitaria [3]): 100%
pest or weed control at 500 g/ha (Veronica): 100%

CCC(CCc1sccc1Br)Nc1nc(N)nc(C(C)(C)F)n1 (stereo not shown) [drawing 250]
degree of damage, Cyperus (Cyperus): 100%
degree of damage, Matricaria (Matricaria): 100%

CCC(CCc1sccc1Br)Nc1nc(N)nc(C(C)F)n1 (stereo not shown) [drawing 231]
degree of damage, Amaranthus (Amaranthus): 100%

CCC(CCc1cc(Br)cs1)Nc1nc(NC(C)=O)nc(C(C)(C)F)n1 (stereo not shown) [drawing 229]
degree of damage, Alopecurus (Alopecurus): 95%
degree of damage, wheat (wheat [4]): 0%

CCC(CCc1sccc1Br)Nc1nc(NC(C)=O)nc(C(C)F)n1 (stereo not shown) [drawing 262]
degree of damage, cotton (cotton): 0%

CCC(CCc1cc(C)sc1C)Nc1nc(NC(C)=O)nc(C(C)(C)F)n1 (stereo not shown) [drawing 234]
degree of damage, maize (maize): 0%
degree of damage, wheat (wheat [4]): 0%

CCC(CCc1cc(Br)cs1)Nc1nc(NC(C)=O)nc(C(C)F)n1 (stereo not shown) [drawing 238]
degree of damage, Chenopodium (Chenopodium): 100%
pest or weed control at 500 g/ha (Veronica): 100%

CCC(CCc1cc(C)sc1C)Nc1nc(N)nc(C(C)F)n1 (stereo not shown) [drawing 233]
degree of damage, Amaranthus (Amaranthus): 100%
degree of damage, maize (maize): 0%
degree of damage, wheat (wheat [4]): 0%

CCC(CCc1cc(Br)cs1)Nc1nc(N)nc(C(C)(C)F)n1 (racemic) [Example 2]
degree of damage, Solanum (Solanum [5]; 125 g of ai./ha): 100%
degree of damage, wheat (wheat [6]; 125 g of ai./ha): 0%
degree of damage, Datura (Datura [7]; 125 g of ai./ha): 95%
degree of damage, barley (barley; 125 g of ai./ha): 0%
tolerance by crop plants [8]: tolerated well
degree of damage, Viola (Viola [9]; 125 g of ai./ha): 95%
activity against weeds (weeds [10]): strong activity against weeds
degree of damage, Ipomoea (Ipomoea; 125 g of ai./ha): 95%

CCC(CCc1cc(C)sc1C)Nc1nc(NC(C)=O)nc(C(C)(C)F)n1 (stereo not shown) [drawing 244]
pest or weed control at 500 g/ha (Veronica): 100%

CCC(CCc1cc(C)sc1C)Nc1nc(NC(C)=O)nc(C(C)(C)F)n1 (stereo not shown) [drawing 264]
degree of damage, Lolium (Lolium): 90%

CCC(CCc1ccc(Br)s1)Nc1nc(N)nc(C(C)F)n1 (racemic) [Example 4]
degree of damage, Setaria (Setaria): 80%
degree of damage, Solanum (Solanum [5]; 500 g of ai./ha): 95%
degree of damage, wheat (wheat [6]; 500 g of ai./ha): 0%
tolerance by crop plants [11]: largely tolerated well
degree of damage, Datura (Datura [7]; 500 g of ai./ha): 95%
activity against weeds (weeds [12]): strong activity against weeds
degree of damage, barley (barley; 500 g of ai./ha): 0%
tolerance by crop plants [8]: tolerated well
degree of damage, Viola (Viola [9]; 500 g of ai./ha): 100%
activity against weeds (weeds [10]): strong activity against weeds
degree of damage, Ipomoea (Ipomoea; 500 g of ai./ha): 95%

CCC(CCc1cc(Br)cs1)Nc1nc(NC(C)=O)nc(C(C)F)n1 (racemic) [Example 6]
degree of damage, Digitaria (Digitaria [13]): 90%
degree of damage, Solanum (Solanum [5]; 500 g of ai./ha): 100%
degree of damage, wheat (wheat [6]; 500 g of ai./ha): 0%
tolerance by crop plants [11]: largely tolerated well
degree of damage, Datura (Datura [7]; 500 g of ai./ha): 100%
activity against weeds (weeds [12]): strong activity against weeds
degree of damage, barley (barley; 500 g of ai./ha): 0%
tolerance by crop plants [8]: tolerated well
degree of damage, Viola (Viola [9]; 500 g of ai./ha): 100%
activity against weeds (weeds [10]): strong activity against weeds
degree of damage, Ipomoea (Ipomoea; 500 g of ai./ha): 100%

CCC(CCc1cc(Br)cs1)Nc1nc(NC(C)=O)nc(C(C)F)n1 (stereo not shown) [drawing 228]
degree of damage, maize (maize): 0%

CCC(CCc1sccc1Br)Nc1nc(NC(C)=O)nc(C(C)F)n1 (stereo not shown) [drawing 242]
degree of damage, Solanum (Solanum [2]): 100%
pest or weed control at 500 g/ha (Veronica): 100%

CCC(CCc1sccc1Br)Nc1nc(N)nc(C(C)F)n1 (stereo not shown) [drawing 261]
degree of damage, Datura (Datura [14]): 100%
degree of damage, cotton (cotton): 0%

CCC(CCc1sccc1Br)Nc1nc(N)nc(C(C)F)n1 (stereo not shown) [drawing 241]
degree of damage, Solanum (Solanum [2]): 100%
degree of damage, Digitaria (Digitaria [3]): 100%
pest or weed control at 500 g/ha (Veronica): 100%
